Reference: PubChem BioAssay (NCI)
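GI50 = concentration required for 50% inhibition of growth. TGI marks complete inhibition of growth.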

What was measured:
Assay in all cases: growth of human tumour cells (NCI), 384-well format
[1] = system: SK-MEL-5 melanoma
[2] = system: 786-0 renal
[3] = system: HOP-62 NSCLC
[4] = system: SN12C renal
[5] = system: NCI-H460 NSCLC
[6] = system: OVCAR-5 ovarian
[7] = system: MALME-3M melanoma
[8] = system: U251 glioblastoma
[9] = system: HL-60(TB) leukemia
[10] = system: A498 renal
[11] = system: A549 NSCLC
[12] = system: LOX IMVI melanoma
[13] = system: UO-31 renal
[14] = system: OVCAR-3 ovarian
[15] = system: SK-OV-3 ovarian
[16] = system: DU-145 prostate
[17] = system: UACC-257 melanoma
[18] = system: RPMI-8226 leukemia
[19] = system: UACC-62 melanoma
[20] = system: K-562 leukemia
[21] = system: TK-10 renal
[22] = system: HCC-2998 colon
[23] = system: NCI/ADR-RES ovarian
[24] = system: COLO 205 colon
[25] = system: RXF 393 renal
[26] = system: CCRF-CEM leukemia
[27] = system: HCT-15 colon
[28] = system: HT29 colon
[29] = system: IGROV1 ovarian
[30] = system: MCF7 breast
[31] = system: SNB-75 CNS
[32] = system: HCT-116 colon
[33] = system: MDA-MB-468 breast
[34] = system: SF-539 CNS
[35] = system: ACHN renal
[36] = system: HOP-92 NSCLC
[37] = system: SW-620 colon
[38] = system: EKVX NSCLC
[39] = system: MDA-MB-435 melanoma
[40] = system: SNB-19 CNS
[41] = system: OVCAR-8 ovarian
[42] = system: MDA-MB-231 breast
[43] = system: NCI-H322M lung
[44] = system: NCI-H522 lung
[45] = system: BT-549 breast
[46] = system: HS 578T breast
[47] = system: KM12 colon
[48] = system: OVCAR-4 ovarian
[49] = system: NCI-H23 lung
[50] = system: SF-268 CNS
[51] = system: CAKI-1 renal
[52] = system: MOLT-4 leukemia
[53] = system: SK-MEL-28 melanoma
[54] = system: SF-295 CNS
[55] = system: T-47D breast
[56] = system: NCI-H226 lung
[57] = system: M14 melanoma
[58] = system: PC-3 prostate

## C=CC(=O)Nc1cccc(Nc2nc(Nc3ccc(N4CCN(C(C)=O)CC4)cc3OC)ncc2C(F)(F)F)c1
[1]
  GI50: 1.83 µM
  TGI: 8.62 µM
[2]
  GI50: 2.61 µM
  TGI: 13.7 µM
[3]
  GI50: 1.97 µM
  TGI: 12.4 µM
[4]
  GI50: 2.07 µM
  TGI: 9.13 µM
[5]
  GI50: 2.71 µM
  TGI: 7.5 µM
[6]
  GI50: 2.33 µM
  TGI: 14.6 µM
[7]
  GI50: 2.39 µM
  TGI: 8.83 µM
[8]
  GI50: 5.04 µM
  TGI: 17.2 µM
[9]
  GI50: 1.4 µM
  TGI: 2.74 µM
[10]
  GI50: 1.81 µM
  TGI: 9.76 µM
[11]
  GI50: 0.597 µM
  TGI: 4.84 µM
[12]
  GI50: 2.64 µM
  TGI: 10.4 µM
[13]
  GI50: 2.26 µM
  TGI: 9.61 µM
[14]
  GI50: 2.05 µM
  TGI: 5.91 µM
[15]
  GI50: 2.03 µM
  TGI: 9.89 µM
[16]
  GI50: 3.51 µM
  TGI: 14 µM
[17]
  GI50: 2.54 µM
  TGI: 11.1 µM
[18]
  GI50: 1.89 µM
  TGI: 5.16 µM
[19]
  GI50: 2.36 µM
  TGI: 11.8 µM
[20]
  GI50: 3.76 µM
  TGI: 13.5 µM
[21]
  GI50: 1.62 µM
  TGI: 4.78 µM
[22]
  GI50: 1.4 µM
  TGI: 8.2 µM
[23]
  GI50: 10.6 µM
  TGI: 22.7 µM
[24]
  GI50: 1.34 µM
  TGI: 3.19 µM
[25]
  GI50: 1.88 µM
  TGI: 6.6 µM
[26]
  GI50: 1.64 µM
  TGI: 3.22 µM
[27]
  GI50: 2.17 µM
  TGI: 8.75 µM
[28]
  GI50: 1.8 µM
  TGI: 5.07 µM
[29]
  GI50: 0.493 µM
  TGI: 2.09 µM
[30]
  GI50: 0.905 µM
  TGI: 5.28 µM
[31]
  GI50: 2.98 µM
  TGI: 12.2 µM
[32]
  GI50: 3.04 µM
  TGI: 13.1 µM
[33]
  GI50: 0.157 µM
  TGI: 0.81 µM
[34]
  GI50: 3.46 µM
  TGI: 14.1 µM
[35]
  GI50: 1.94 µM
  TGI: 19 µM
[36]
  GI50: 2.06 µM
  TGI: 7.69 µM
[37]
  GI50: 1.75 µM
  TGI: 3.45 µM
[38]
  GI50: 1.07 µM
  TGI: 3.72 µM
[39]
  GI50: 4.73 µM
  TGI: 17.1 µM
[40]
  GI50: 8.32 µM
  TGI: 20.9 µM
[41]
  GI50: 2.83 µM
  TGI: 10.2 µM
[42]
  GI50: 3.46 µM
  TGI: 17.6 µM
[43]
  GI50: 1.22 µM
  TGI: 3.35 µM
[44]
  GI50: 0.288 µM
  TGI: 1.55 µM
[45]
  GI50: 2.87 µM
  TGI: 10.2 µM
[46]
  GI50: 1.9 µM
  TGI: 6.58 µM
[47]
  GI50: 2.16 µM
  TGI: 14.4 µM
[48]
  GI50: 4.33 µM
  TGI: 34.6 µM
[49]
  GI50: 1.94 µM
  TGI: 6.87 µM
[50]
  GI50: 0.268 µM
  TGI: 2.24 µM
[51]
  GI50: 1.91 µM
  TGI: 6.28 µM
[52]
  GI50: 0.521 µM
  TGI: 1.87 µM
[53]
  GI50: 10.2 µM
  TGI: 23.9 µM
[54]
  GI50: 6.74 µM
  TGI: 19.8 µM
[55]
  GI50: 1.44 µM
  TGI: 5.28 µM
[56]
  GI50: 1.38 µM
  TGI: 6.51 µM
[57]
  GI50: 1.94 µM
  TGI: 8.31 µM
[58]
  GI50: 4.33 µM
  TGI: 15.9 µM
